Laboratory results: patent US7109014B1, “Diglycosidase isolated from microorganisms” (Amano Enzyme Inc., priority 1998, dated 2006)
Structures can show the parent of a compound that is named as a salt. Where two headings read alike, the source gives them in different places.

How the values were obtained:
[1] = system: Aspergillus fumigatus IAM 2046; assay: Effects of inducers on the production of diglycosidase; format: cell-based; conditions: for activity at 0.1 %: Aspergillus fumigatus, IAM2046, 144 h, read-out: Inducing ability (%)
Procedure: Measurement of the activity was carried out using an automatic chemical analyzer (TBA-30R, manufactured by TOSHIBA CORP.). A 30 μl portion of each enzyme sample was mixed with 200 μl of acetate buffer solution (pH 5.5) containing 2 mM of p-nitrophenyl (pNP) primeveroside as the disaccharide glycoside substrate to carry out the reaction at 40° C. and at a cycle time of 22.5 seconds, for 9.75 minutes, and then the reaction solution was mixed with 250 μl of sodium carbonate to measure absorbance at 412 nm. Measurement of the sample blank was carried out in the same manner using 20 mM acetate buffer (pH 5.5) instead of the substrate solution.
Using Aspergillus fumigatus IAM 2046, effects of inducers on the production of diglycosidase were examined. Aspergillus fumigatus IAM 2046 was cultured for 6 days in a culture medium (2% soybean flour, 0.3% sodium chloride, 0.1% KH2PO4, 0.05% MgSO4.7H2O, 3% soluble starch) supplemented with 0.1% of each of various saccharides, and the diglycosidase activity was measured.

[2] = Release of primeverose from pNP-primeveroside by TLC; format: biochemical; conditions: 0.3 AU purified enzyme, 37° C., 24 hours
Procedure: Each of the crude enzyme solutions obtained in Examples 1 and 2 was concentrated using an ultrafiltration membrane having a molecular weight cutoff of 6,000. Next, 1 ml of the concentrated solution was mixed with 1 ml of a 5 mg/ml pNP-primeveroside solution which had been prepared using 20 mM phosphate buffer (pH 6.0), and the mixture was incubated at 37° C. Samples were collected 1, 2, 4, 24 and 48 hours thereafter to confirm release of primeverose by a thin layer chromatography (TLC).
A 0.3 AU portion of the purified enzyme solution obtained in Example 6 and the aforementioned pNP-primeveroside were incubated at 37° C. for 24 hours to examine release of disaccharide by TLC. […] Such a spot was not found by the heat-treated purified enzyme solution used as a control.

[3] = Release of disaccharide and formation of aroma from eugenyl primeveroside; format: biochemical; conditions: 0.3 AU purified enzyme, 37° C., 24 hours
Procedure: eugenyl primeveroside solution adjusted to 5 mg/ml with 20 mM phosphate buffer (pH 6.0), the mixture was incubated at 37° C. for 24 hours and then the formation of aroma was examined by a sensory test (10 panel). […]
[…] […] These were not found in heat-inactivated enzyme solution.

[4] = Sugar transfer in disaccharide unit by diglycosidase; format: biochemical; conditions: 55° C., 6 hours
Procedure: The purified enzyme of Example 6 was diluted with deionized water to adjust the activity to E1.0 AU/ml, and acetonitrile ([…]) containing 2.5% phenethyl alcohol, 20 mM acetate buffer (250 μl) containing 10% primeverose and the enzyme solution (50 μl) were mixed to carry out the reaction at 55° C. The reaction was completed after 6 hours and the reaction solution was mixed with 500 μl of diethyl ether, stirred and then centrifuged to remove free aglycon which was transferred into the ether layer. By applying the water layer to a Diaion HP-20 column and passing purified water through the column, free primeverose was removed. The disaccharide glycoside adsorbed to the resin was eluted with methanol and concentrated to dryness. This was dissolved in 100 μl of deionized water, and a 20 μl portion thereof was spotted on a TLC plate to detect the reaction product (the developing solvent was ethyl acetate:acetic acid:deionized water=3:1:1, acetic acid:methanol=1:4 solution was sprayed thereto after the development and allowed to stand at 105° C. for 10 minutes).

[5] = Optimum pH of diglycosidase; format: biochemical
Procedure: Its optimum pH was measured in the following manner. A 400 μl portion of 2 mM pNP-primeveroside solution which had been adjusted to a respective pH value of from pH 2 to 5 with 20 mM secondary citric acid-HCl buffer was incubated at 37° C. for 5 minutes. Next, this was mixed with 90 μl of the enzyme solution to carry out the reaction at 37° C. for 20 minutes. The reaction was stopped by adding 500 μl of 0.5 M sodium carbonate solution, and the activity measurement was carried out by measuring the absorbance at 420 nm.

[6] = Release of disaccharide from pigment glycoside by TLC; format: biochemical; conditions: 5 mg/ml ruberythric acid, 37° C., 24 hours
Procedure: Release of disaccharide was examined using a disaccharide glycoside, ruberythric acid, as the substrate. Ruberythric acid was prepared by adsorbing a water extract of Rubia tinctorum L. root powder for staining use (available from Tanaka Senshoku Ten) to HP-20 column, washing the column with 50% methanol, and then eluting the compound with 100% methanol and evaporating the eluate to dryness using an evaporator. A substrate prepared by dissolving the thus recovered ruberythric acid in a phosphate buffer to a concentration of 5 mg/ml was mixed with the crude enzyme solution (0.3 AU) shown in Example 4 or the purified enzyme solution shown in Example 6 and incubated at 37° C. for 24 hours, and then the reaction solution was analyzed by TLC.

[7] = Optimum temperature of diglycosidase; format: biochemical; conditions: pH 2.5, 20 minutes
Procedure: Its optimum temperature was measured in the following manner. A 400 μl portion of 2 mM pNP-primeveroside solution prepared using 20 mM disodium citric acid-HCl buffer (pH 2.5) was mixed with 90 μl of the enzyme solution to carry out the reaction at 30 to 65° C. for 20 minutes. The reaction was stopped by adding 500 μl of 0.5 M sodium carbonate solution, and the activity was determined by measuring the absorbance at 420 nm.

[8] = Thermal stability of diglycosidase (residual activity); format: physicochemical; conditions: pH 8, 1 hour, 30 to 55° C.
Procedure: Thermal stability of the purified preparation was examined by diluting it 100 times with 20 mM glycine NaCl—NaOH buffer (pH 8), treating the dilution at each temperature of from 30 to 55° C. for 1 hour and then measuring the residual activity. As a result, the activity was stable at a temperature of 50° C. or below.

[9] = medium supplemented with 0.1% of saccharide, cultured 6 days, diglycosidase activity, not added = 100

Row | Molecule | Inducing ability (%) [1, 9] | activity at 0.1 % [1, 9] | further results
1 | Gentiobiose | 211% | – | inducing ability / producing ability of diglycosidase (in words) ([1]; 0.1% saccharide, 6 days): markedly high inducing ability
2 | Maltotriose | 171% | – | –
3 | OC[C@@H](O)[C@@H](O[C@H]1O[C@H](CO)[C@@H](O)[C@H](O)[C@H]1O)[C@H](O)[C@@H](O)CO [Maltitol] | 142% | – | –
4 | O=C[C@H](O)[C@@H](O)[C@@H](O)[C@H](O)CO [Galactose] | – | 125% | –
5 | OC[C@@H](O)C(O)[C@H](O)CO [Arabitol] | 112% | – | –
6 | O=C(CO)[C@@H](O)[C@H](O)[C@H](O)CO [Fructose] | – | – | activity at 0.1 % [1]: 143%
7 | OC[C@@H](O)[C@H](O)[C@H](O)[C@@H](O)CO [Galactitol] | – | 142% | –
8 | OC[C@H]1O[C@H](OC[C@H]2OC(O)[C@H](O)[C@@H](O)[C@@H]2O)[C@H](O)[C@@H](O)[C@@H]1O (some centres unmarked) [Isomaltose] | 145% | – | –
9 | C[C@H](O)[C@H](O)[C@@H](O)[C@@H](O)C=O [Rhamnose] | – | 129% | –
10 | OC[C@H]1O[C@H](O[C@H]2[C@H](O)[C@@H](O)C(O)O[C@@H]2CO)[C@H](O)[C@@H](O)[C@@H]1O (mixture of isomers) [Maltose] | – | 136% | –
11 | OC[C@H]1O[C@H](O[C@H]2O[C@H](CO)[C@@H](O)[C@H](O)[C@H]2O)[C@H](O)[C@@H](O)[C@@H]1O [Trehalose] | – | 113% | –
12 | OC[C@H]1O[C@@](CO)(O[C@H]2O[C@H](CO)[C@@H](O)[C@H](O)[C@H]2O)[C@@H](O)[C@@H]1O [Sucrose] | – | 116% | –
13 | N[C@H]1C(O)O[C@H](CO)[C@@H](O)[C@@H]1O (some centres unmarked) [Glucosamine hydrochloride] | – | 157% | –
14 | diglycosidase derived from Aspergillus fumigatus: purified enzyme preparation of diglycosidase from Aspergillus fumigatus IAM 2046, single band of 47 kDa, SEQ ID NO: 8 (protein, listed as Aspergillus fumigatus) AASASAYCSNSAGNYKLSSIAAPVQGAGNPGSESTWQLTVDDTSSGHKQTIVGFGAAVTDATVTSFNTLSASVLQDLLNKLMTPAGANFALMRHTIGASDLSGDPAYTYDDNGGKADPSLSGFNLGDRGTAMAKMLATMKSLQPNLKILGSPWSAPGWMKLNGVLDGNTNNNNLNDGYLTSGGTGSTGYASQFAQYFVKYIQAYKNLGAHVDAITIQNEPLFSSAGYPTMYVYDYESAQLIQNYIGPALASAGLDTEIWAYDHNTDVPSYPQTVLNQAGQYVKSVAWHCYAPNVDWTVLSQFHNTNPGVKQYMTECWTPASGAWHQAADFTMGPLQNWASGVAAWTLGTNAQDGPHLSTGGCATCQGLVTINNGGYTLNTAYYMMAQFSKFMPPGAIVLNGSGSYTYSGGGGIQSVASLNPDGTRTVVIENTFGNDVYVTVTMKSGQKWSGNAPSQSVTTWVLPSA | – | – | release of disaccharide (TLC) [2]: release of a disaccharide was confirmed; release of disaccharide (TLC) [3]: release of a disaccharide was confirmed; release of eugenol (gas chromatography) [3]: confirmed; release of eugenol (sensory test) [3]: release of eugenol was also confirmed; transfer of disaccharide to phenethyl alcohol (TLC) [4]: transfers the diglycoside to phenethyl alcohol and thereby forms a disaccharide glycoside; activity at pH 3 (in words) [5]: sufficient activity; release of primeverose and alizarin (TLC) [6]: release of the disaccharide primeverose and the aglycon alizarin was observed; activity at 60° C. [7]: 80%; temperature at which activity is stable [8]: ≤ 50 °C
